The assay relates to HCMV infected cells. Briefly: CTL analysis of HPLC purified pp65-CNBr digest peptides. The following applies: identification method: by experiment. The assay is classed as cell-based, human. As to the method: For chemical cleavage with CNBr, pp65 was dissolved in 60% formic acid and treated overnight under argon with a 100 fold molar excess of CNBr (over methionine residues). The solvent was evaporated at room temperature under a stream of argon, the residue resuspended in water and lyophilized. The peptides were fractionated by HPLC on a Vydac C4 reverse phase column, using a 90-minute linear gradient from 100% solvent A (0.1% TFA) to 100% solvent B (TFA/H2O/CH3CN, 0.1/9.9/90, v/v/v/). The HPLC purified peaks from map A were subjected to amino acid sequencing (performed by City of Hope) and from map B were used for CTL analysis (performed at the Fred Hutchinson Cancer Center).
Figure 4 is a map produced by the HPLC analysis. The HPLC purified peptide peaks designated by asterisks in Figure 4 were sequenced. These peptides correspond to sequences 1 through 6 (Sequence ID Nos. 1-6), of this application. The invention includes the use of these six peptides or portions thereof to lyse HCMV infected cells, and as immunogens in HCMV vaccines and skin test formulations.

On to “SEQ ID NO:1: Fragment of pp65 protein expressed by HCMV (Towne), 98 amino acid residues, amino acid 12-109”, for which the “induction of CTLs that lyse HCMV infected cells” value is “Induces CTLs that lyse HCMV infected cells”.
Regarding “SEQ ID NO:6: C-terminal fragment of HCMV pp65 protein, 62 amino acid residues, amino acid 500-561”, the “induction of CTLs that lyse HCMV infected cells” value is recorded as “Induces CTLs that lyse HCMV infected cells”.

These data come from patent EP0605432B1, “INDUCTION OF CYTOLYTIC T-L[…] CYTOMEGALOVIRUS POLYPEPTIDES” (CITY OF HOPE, priority 1992, dated 2001).
